Consider 13 molecules from patent US8268827B2, “Pyridazinone derivatives as PARP inhibitors” (Istituto di Ricerche di Biologia Molecolare P. Angeletti …, priority 2007, dated 2012).

The test system of assay [1] is ischemia and reperfusion of the heart. As to conditions: rabbits, cited from earlier work.
Assay [2] concerns BRCA-1 silenced HeLa cells (HeLa shBRCA1-GFP). As to the kind of experiment: Proliferation assay in BRCA-1 silenced HeLa cells. As to conditions: Homo sapiens; for inhibition at 5 µM: read-out: % inh @ 5 uM (BRCA1-). In kind it is cell-based. Put shortly: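 HeLa cells with lentiviral shRNA BRCA1 knockdown (>80%), compared with control-vector HeLa, seeded at 300 cells/well. Compound exposure lasted 168 h at 37° C. Viability was read as resazurin-to-resorufin fluorescence (ex 550/em 590 nm).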

Assay [3] addresses T1, PARP-1 (Homo sapiens, UniProt P09874).
T1 construct: purchased Trevigen 4668-500-01
As to the kind of experiment: PARP-1 TCA assay (inhibitory activity on human PARP-1). In kind it is biochemical. As to conditions: human PARP-1, TCA assay. On the procedure:
Inhibitory Activity on Human PARP-1
The study was designed to determine the potency of compounds for inhibiting poly(ADP-ribosylation) by hPARP1 upon presentation of a nicked DNA (i.e. Activated Calf Thymus). The IC50 was determined in a TCA assay looking at the incorporation of [^3H]-NAD into the growing Poly-ADP-ribose (PAR) polymers and detection of the radioactivity incorporated in a polymer by scintillation counting.
A 96 wells polypropylene microplate was prepared with serial dilutions of compounds (10 point over a 0.1 nM-50 nM concentration range 5% DMSO, 5 uL) or 5% DMSO. The enzymatic reaction was conducted in the presence of 25 mM Tris-HCl pH8.0, 1 mM MgCl2, 50 mM KCl, 1 mM Spermine, 0.01% Nonidet P-40, 1 mM DTT, 1 ug/ml activated Calf Thymus DNA (Amersham Biosciences 27-4575) and 1 nM of human PARP-1 enzyme (Trevigen 4668-500-01). The reaction was initiated by adding 1 ug/ml Activated Calf Thymus DNA (Amersham Biosciences 27-4575), 0.4 ul (2.2×10^5DPM) of [^3H]-NAD (250uCi/ml, Perkin Elmer NET-443H) and 1.5 uM NAD (Sigma #N-1511) in a total reaction volume of 50 ul. After 2 hours incubation at room temperature, the reaction was stopped by the addition of TCA (50 uL, 20%) and NaPPi (20 mM) and incubated for 10 min over ice. The resulting precipitate was filtered on Unifilter GF/B microplate (Perkin Elmer) and washed four times with 2.5% TCA using Harvester Filtermate 196 (Perkin Elmer). After addition of 50 ul of Microscint 20 (Perkin Elmer) the amount of radioactivity incorporated into the PARP polymers was read for each well on Perkin Elmer Top Count. IC50 was calculated using 4P logistic fitting with ADA software based on the residual enzyme activity in the presence of increasing concentrations of compounds.

Assay [4] concerns the target T1, PARP-1. In words: PARP-1 SPA assay. In kind it is biochemical. Put shortly: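 PARP-1 reaction in Tris pH 8 buffer with MgCl2, spermine, KCl, activated calf thymus DNA and a mix of [3H]-NAD, NAD and biotinylated NAD, 2 h at RT. Stopped with EDTA/streptavidin SPA beads and poly(ADP-ribose) incorporation counted by scintillation.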
The mark [5] stands for this setting: BRCA-1 silenced HeLa cells, read-out: BRCA1- CC50.
Where [6] appears, read: BRCA1 silenced HeLa cells, 168 hours, read-out: CC50 in the BRCA1 silenced HeLa cells.

A word on the CC50: it is the concentration at which the toxic effect on the cells reaches its halfway point. One may read the IC50 as the point on the concentration scale where inhibition reaches its midpoint. Higher therefore signals weaker potency in that assay.

Structures can show the parent of a compound that is named as a salt. Where two headings read alike, the source gives them in different places.

T1 sequence (P09874 whole entry): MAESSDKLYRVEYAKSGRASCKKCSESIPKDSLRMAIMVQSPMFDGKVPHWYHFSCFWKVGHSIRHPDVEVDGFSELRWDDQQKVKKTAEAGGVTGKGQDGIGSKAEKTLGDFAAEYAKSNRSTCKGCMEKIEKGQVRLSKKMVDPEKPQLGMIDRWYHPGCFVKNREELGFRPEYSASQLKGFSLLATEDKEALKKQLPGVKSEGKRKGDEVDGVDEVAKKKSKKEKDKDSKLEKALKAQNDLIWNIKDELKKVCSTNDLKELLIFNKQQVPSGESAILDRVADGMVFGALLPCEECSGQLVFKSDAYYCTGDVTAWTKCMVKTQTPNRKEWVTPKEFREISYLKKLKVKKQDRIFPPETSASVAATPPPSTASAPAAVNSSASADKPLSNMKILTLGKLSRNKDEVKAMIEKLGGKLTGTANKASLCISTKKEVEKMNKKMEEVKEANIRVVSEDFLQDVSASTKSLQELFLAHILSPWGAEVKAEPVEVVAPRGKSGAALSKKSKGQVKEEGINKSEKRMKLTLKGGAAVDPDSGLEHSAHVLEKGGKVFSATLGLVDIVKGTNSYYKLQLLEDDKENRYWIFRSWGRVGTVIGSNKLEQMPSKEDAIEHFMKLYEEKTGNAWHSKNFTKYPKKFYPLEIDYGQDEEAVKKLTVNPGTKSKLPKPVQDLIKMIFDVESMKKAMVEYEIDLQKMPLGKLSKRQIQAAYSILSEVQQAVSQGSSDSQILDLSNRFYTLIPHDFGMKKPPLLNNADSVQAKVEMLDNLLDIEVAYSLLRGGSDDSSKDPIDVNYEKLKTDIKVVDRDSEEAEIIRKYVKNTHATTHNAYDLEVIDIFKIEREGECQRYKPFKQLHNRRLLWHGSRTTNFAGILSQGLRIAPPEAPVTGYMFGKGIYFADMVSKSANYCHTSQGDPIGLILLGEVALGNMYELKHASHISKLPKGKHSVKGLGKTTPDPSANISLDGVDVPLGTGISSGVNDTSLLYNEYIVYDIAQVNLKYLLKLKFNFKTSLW

`Oc1cccc2c(O)nccc12` [1,5-dihydroxyisoquinoline]: in assay [1] (single injection 1 mg/kg), the “reduction in infarct size” value was 38-48%.

In the case of `Cc1c(Cc2ccc(F)c(C(=O)N3CCN(C4CCCCC4)CC3)c2)n[nH]c(=O)c1C`, the CC50 in assay [2] (setting [5]) turned out to be 0.4 µM. The molecule also gave an IC50 on PARP-1 [3] of 0.0074 µM. With `Cc1c(Cc2ccc(F)c(C(=O)N3CC=C(c4ccc(F)cc4)CC3)c2)n[nH]c(=O)c1C`, the inhibition at 5 µM in assay [2] (BRCA-1 silenced HeLa cells) was found to be 45%. Further, on PARP-1 [3], the IC50 turned out to be 0.02 µM.

In the case of `Cc1c(Cc2ccc(F)c(C(=O)N3CCN(c4ccc(F)cc4)CC3)c2)n[nH]c(=O)c1C`, the inhibition at 5 µM in assay [2] (BRCA-1 silenced HeLa cells) is 52%. This molecule also came in with an IC50 on PARP-1 [3] of 0.02 µM. Consider `Cc1c(Cc2ccc(F)c(C(=O)N3CCN(c4ccc(F)cc4)C(=O)C3)c2)n[nH]c(=O)c1C` [drawing 26], for which the CC50 in assay [2] (setting [5]) is 0.096 µM. The same molecule had an IC50 against PARP-1 [3] of 0.00087 µM. The like results for `Cc1c(Cc2ccc(F)c(C(=O)N3CCN(c4ccccc4)C(=O)C3)c2)n[nH]c(=O)c1C` [drawing 25] were, in that order, 0.018 µM and 0.001 µM. The like results for `Cc1c(Cc2ccc(F)c(C(=O)N3CCN(C4CCCCC4)C(=O)C3)c2)n[nH]c(=O)c1C` [drawing 29] were, in that order, 0.007 µM and 0.00036 µM.

Regarding `NC(=O)c1cccc(N)c1` [3-amino-benzamide], the “reduction in infarct size in the heart” value in assay [1] (single injection 10 mg/kg, one minute before occlusion or one minute before reperfusion) is given as 32-42%. Turning to `Cc1c(Cc2ccc(F)c(C(=O)N3CC(=O)N4CCCC[C@H]4C3)c2)n[nH]c(=O)c1C(F)(F)F` [Example 135, 3-(4-Fluoro-3-{[(9aS)-4-oxooctahydro-2h-pyrido[1,2-a]pyrazin-2-yl]carbonyl}benzyl)-4-methyl-6-oxo-5-(trifluoromethyl)-1,6-dihydropyridazin-1-ium trifluoroacetate], the IC50 on PARP-1 [4] lay within 0.005 to 0.025 µM. In addition, in assay [2] (setting [6]), the CC50 is less than 0.05 µM.

Consider `Cc1c(Cc2ccc(F)c(C(=O)N3CCN(C(c4cccnc4)C(F)F)C(=O)C3)c2)n[nH]c(=O)c1C` (stereo not drawn) [Example 96, 6-(3-{[4-(2,2-difluoro-1-pyridin-3-ylethyl)-3-oxopiperazin-1-yl]carbonyl}-4-fluorobenzyl)-4,5-dimethyl-3-oxo-2,3-dihydropyridazin-1-ium trifluoroacetate], for which, at PARP-1 [4], the IC50 was in the range of 0.005 to 0.025 µM. Besides, in assay [2] (setting [6]), the CC50 was less than 5 µM.

With `O=C(c1cc(Cc2cc(C(F)(F)C(F)(F)F)c(=O)[nH]n2)ccc1F)N1CCN(C2CCCC2)C(=O)C1` [Example 81, 6-{3-[(4-Cyclopentyl-3-oxopiperazin-1-yl)carbonyl]-4-fluorobenzyl}-4-(pentafluoroethyl)pyridazin-3(2H)-one], the IC50 on PARP-1 [4] lay in the range of 0.005 to 0.025 µM. In addition, the CC50 in assay [2] (setting [6]) fell in the range of 0.05 to 0.5 µM. The like results for `Cc1c(Cc2ccc(F)c(C(=O)N3CC(=O)N(C4C[C@H]5CC[C@@H]4C5)C(C)C3)c2)n[nH]c(=O)c1C` (stereo partly drawn) [Example 140, 6-[3-({4-[(1R,4S)-bicyclo[2.2.1]hept-2-yl]-3-methyl-5-oxopiperazin-1-yl}carbonyl)-4-fluorobenzyl]-4,5-dimethyl-3-oxo-2,3-dihydropyridazin-1-ium trifluoroacetate] were, in that order, 0.005 to 0.025 µM and less than 0.05 µM. As to `Cc1c(Cc2ccc(F)c(C(=O)N3CC(=O)N(C4CCCC4)C(CC(C)C)C3)c2)n[nH]c(=O)c1C` (stereo not drawn) [Example 185, 6-{3-[(4-Cyclopentyl-3-isobutyl-5-oxopiperazin-1-yl)carbonyl]-4-fluorobenzyl}-4,5-dimethylpyridazin-3(2H)-one], on PARP-1 [4], the IC50 is 0.025 to 0.15 µM. Moreover, in assay [2] (setting [6]), the CC50 is less than 5 µM.
